From patent US20080279775A1, “Benztropinamine Analogs as Dopamine Uptake Inhibitors” (priority 2005, published 2008)
Counter-ions that a name gives are not always drawn. Like-named read-outs stand apart in the source and are kept apart here.

Tests used:
mice = experiment: Locomotor stimulant effects (activity counts per minute); type: in vivo; details: injected, at the most effective dose, FIG. 2
Source text: In contrast, 2m produced much more modest increases in activity of around 100 counts per min.

DAT = molecular target: T1, DAT (Rattus norvegicus, UniProt P23977); experiment: Dopamine transporter binding assay, displacement of [3H]WIN 35,428; details: for Ki: rat caudate-putamen membranes, read-out: DAT [3H]WIN 35,428 Ki ± SEM; for Reduction of binding affinity at the DAT compared to 2a: lower affinity than 2a
T1 construct: their brains removed to an ice-cooled dish for dissection of the caudate putamen; from tissue; host or cells: rat caudate putamen membranes (fresh homogenates)
T1 sequence (P23977 whole entry): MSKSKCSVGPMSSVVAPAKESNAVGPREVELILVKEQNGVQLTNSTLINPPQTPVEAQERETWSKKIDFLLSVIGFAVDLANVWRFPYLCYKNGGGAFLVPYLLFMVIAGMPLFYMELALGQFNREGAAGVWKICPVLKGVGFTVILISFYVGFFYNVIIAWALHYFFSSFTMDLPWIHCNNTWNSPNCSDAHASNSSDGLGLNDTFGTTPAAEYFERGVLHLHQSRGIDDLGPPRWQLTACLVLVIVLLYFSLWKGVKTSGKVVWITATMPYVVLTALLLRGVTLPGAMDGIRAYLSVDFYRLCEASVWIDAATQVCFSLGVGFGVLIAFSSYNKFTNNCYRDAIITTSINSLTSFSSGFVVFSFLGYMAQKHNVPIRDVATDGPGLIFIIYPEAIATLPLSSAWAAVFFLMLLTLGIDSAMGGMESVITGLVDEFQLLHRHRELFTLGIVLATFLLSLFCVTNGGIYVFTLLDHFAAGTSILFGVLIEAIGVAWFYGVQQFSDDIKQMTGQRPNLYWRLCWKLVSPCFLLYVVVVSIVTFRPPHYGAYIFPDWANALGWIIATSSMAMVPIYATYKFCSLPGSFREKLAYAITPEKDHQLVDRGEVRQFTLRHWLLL

NET [1] = type: binding, rat; details: for Binding selectivity NET/DAT: Ki ratio
Method: (§1) In order to understand the neurochemical and behavioral properties of the compounds of the present invention, exemplary benztropinamine analogs were evaluated for displacement of [^3H]WIN 35,428 (2β-carbomethoxy-3β-(4-fluorophenyl)tropane) binding to the DAT in rat caudate-putamen. These benztropinamine analogs were also evaluated for displacement of radiolabeled ligand binding at the serotonin (SERT) and norepinephrine (NET) transporters as well as the muscarinic m1 receptor (M1), Table 1, infra. The NET over DAT selectivity refers to the Ki ratio. When the Ki ratio is greater than 1, the compound is DAT selective. The DAT selectivities of the analogs over these binding sites are depicted in Table 2.
(§2) [^3H]Nisoxetine Binding Assay. Membranes from frozen frontal cortex dissected from male Sprague-Dawley rats (Taconic Labs, Germantown, N.Y.) were homogenized in 20 volumes (w/v) of 50 mM Tris containing 120 mM NaCl and 5 mM KCl (pH 7.4 at 25° C.), using a Brinkman Polytron (at setting 6 for 20 sec). The tissue was centrifuged at 50,000×g for 10 min at 4° C. The resulting pellet was resuspended in buffer and recentrifuged. The final pellet was resuspended in cold buffer to a concentration of 80 mg/ml (original wet weight). Ligand binding experiments were conducted in assay tubes containing 0.5 ml buffer, 0.5 nM [3H]nisoxetine (New England Nuclear, Boston, Mass.), and 8 mg frontal cortex tissue. The reaction was started with the addition of the tissue and the tubes were incubated for 60 min at 0-4° C. The incubation was terminated by rapid filtration through Whatman GF/B filters, presoaked in 0.05% polyethylenimine, using a Brandel Cell Harvester (Brandel Instruments Gaithersburg, Md.). The filters were washed twice with 5 ml cold buffer, transferred to scintillation vials to which Beckman Ready Safe was added. Nonspecific binding was determined using 1 μM desipramine. Data were analyzed using GraphPad Prism software (San Diego, Calif.).

muscarinic M1 receptor = molecular target: T2, muscarinic M1 receptor (Rattus norvegicus, UniProt P08482); experiment: [3H]Pirenzepine binding assay; details: for Binding selectivity M1/DAT: Ki ratio
T2 construct: Membranes from frozen rat brains excluding cerebellum were thawed in ice-cold buffer; from tissue; host or cells: frozen rat brain (excluding cerebellum) membranes
T2 sequence (P08482 1-460): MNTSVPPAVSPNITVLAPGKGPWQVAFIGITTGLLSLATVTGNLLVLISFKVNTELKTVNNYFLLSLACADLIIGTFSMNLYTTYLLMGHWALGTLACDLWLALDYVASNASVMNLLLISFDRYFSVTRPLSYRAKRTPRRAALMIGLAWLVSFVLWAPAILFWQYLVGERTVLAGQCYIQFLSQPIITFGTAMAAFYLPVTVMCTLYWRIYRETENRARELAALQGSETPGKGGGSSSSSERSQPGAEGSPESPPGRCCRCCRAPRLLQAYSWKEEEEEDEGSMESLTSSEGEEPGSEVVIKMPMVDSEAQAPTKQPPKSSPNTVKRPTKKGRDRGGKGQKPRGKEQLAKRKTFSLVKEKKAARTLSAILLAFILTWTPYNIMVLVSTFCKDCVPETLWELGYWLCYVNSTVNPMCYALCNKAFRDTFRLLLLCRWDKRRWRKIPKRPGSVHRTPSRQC
Method: as §1, with “When the Ki ratio is greater than 1, the compound is DAT selective.” left out
[…] Binding Assay. Membranes from frozen rat brains excluding cerebellum were thawed in ice-cold buffer (10 mM Tris-HCl, 320 mM sucrose, pH 7.4) and homogenized with a Brinkman polytron in a volume of 10 ml/gm of tissue. The homogenate was centrifuged at 1,000×g for 10 min at 4° C. The resulting supernatant was then centrifuged at 10,000×g for 20 min at 4° C. The resulting pellet was resuspended in a volume of 200 mg/ml in 10 mM Tris buffer (pH 7.4). Ligand binding assays were conducted in tubes containing 0.5 ml of buffer (10 mM Tris-HCl, 5 mM MgCl2), 3 nM [^3H]pirenzepine (New England Nuclear, Boston, Mass.), and 20 mg of brain tissue. The reaction was started with the addition of the tissue and the tubes were incubated for 60 min in a 37° C. water bath. The incubation was terminated by the addition of 5 ml of ice-cold buffer (10 mM Tris-HCl, pH 7.4) and rapid filtration through Whatman GF/B glass fiber filter paper (presoaked in 0.5% polyethylenimine) using a Brandel Cell Harvester (Brandel Instruments, Gaithersburg, Md.). The filters were washed twice with 5 ml cold buffer, and transferred to scintillation vials to which absolute ethanol and Beckman Ready Safe was added. Quinuclidinyl benzilate (QNB), 100 μM final concentration, was used to determine non-specific binding. Data were analyzed by using GraphPad Prism software (San Diego, Calif.).

SERT = molecular target: T3, SERT (Rattus norvegicus, UniProt P31652); experiment: [3H]Citalopram binding assay; details: for Binding selectivity SERT/DAT: Ki ratio
T3 construct: Membranes from frozen rat midbrain were homogenized; from tissue; host or cells: frozen rat midbrain membranes
T3 sequence (P31652 whole entry): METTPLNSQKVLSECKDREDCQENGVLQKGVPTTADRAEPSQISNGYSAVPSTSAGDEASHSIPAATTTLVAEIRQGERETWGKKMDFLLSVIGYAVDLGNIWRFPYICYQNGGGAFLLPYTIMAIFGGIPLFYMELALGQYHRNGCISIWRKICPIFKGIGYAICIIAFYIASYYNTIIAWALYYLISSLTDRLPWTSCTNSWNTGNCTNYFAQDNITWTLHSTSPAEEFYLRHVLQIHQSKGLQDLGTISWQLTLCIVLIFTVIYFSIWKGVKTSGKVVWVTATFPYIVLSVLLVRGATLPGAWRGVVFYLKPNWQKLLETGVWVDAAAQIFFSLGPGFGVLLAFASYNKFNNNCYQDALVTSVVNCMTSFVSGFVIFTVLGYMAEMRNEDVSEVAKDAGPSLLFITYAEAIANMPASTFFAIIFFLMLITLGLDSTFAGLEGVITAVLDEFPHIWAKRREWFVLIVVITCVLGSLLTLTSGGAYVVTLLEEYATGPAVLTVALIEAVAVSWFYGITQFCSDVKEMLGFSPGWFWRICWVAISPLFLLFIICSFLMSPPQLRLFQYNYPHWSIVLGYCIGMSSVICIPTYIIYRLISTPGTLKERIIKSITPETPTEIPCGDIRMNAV
Method: as §1
[^3H]Citalopram Binding Assay. Membranes from frozen rat midbrain were homogenized in 20 volumes (w/v) of 50 mM Tris containing 120 mM NaCl and 5 mM KCl (pH 7.4 at 25° C.), using a Brinkman Polytron (at setting 6 for 20 sec). The tissue was centrifuged at 20,000×g for 10 min at 4° C. The resulting pellet was resuspended in buffer and recentrifuged. The final pellet was resuspended in cold buffer to a concentration of 15 mg/ml (original wet weight). Ligand binding experiments were conducted in assay tubes containing 0.5 ml of buffer, 1.4 nM [^3H]citalopram (New England Nuclear, Boston Mass.), and 1.5 mg midbrain tissue. The reaction was started with the addition of the tissue and the tubes were incubated for 60 min at 25° C. (room temperature). The incubation was terminated by rapid filtration through Whatman GF/B filters (presoaked in 0.3% polyethylenimine in water) using a Brandel Cell Harvester (Brandel Instruments Gaithersburg, Md.). The filters were washed twice with 5 ml cold buffer, transferred to scintillation vials to which Beckman Ready Safe was added. Nonspecific binding was determined using 10 μM fluoxetine (RBI, Natick, Mass.). Data were analyzed using GraphPad Prism software (San Diego, Calif.).

NET [2] = molecular target: NET (Rattus norvegicus, UniProt Q63380); type: binding; details: read-out: NET [3H]nisoxetine Ki ± SEM; rat frontal cortex membranes
Sequence of NET (Rattus norvegicus, UniProt Q63380) (Q63380 1-617): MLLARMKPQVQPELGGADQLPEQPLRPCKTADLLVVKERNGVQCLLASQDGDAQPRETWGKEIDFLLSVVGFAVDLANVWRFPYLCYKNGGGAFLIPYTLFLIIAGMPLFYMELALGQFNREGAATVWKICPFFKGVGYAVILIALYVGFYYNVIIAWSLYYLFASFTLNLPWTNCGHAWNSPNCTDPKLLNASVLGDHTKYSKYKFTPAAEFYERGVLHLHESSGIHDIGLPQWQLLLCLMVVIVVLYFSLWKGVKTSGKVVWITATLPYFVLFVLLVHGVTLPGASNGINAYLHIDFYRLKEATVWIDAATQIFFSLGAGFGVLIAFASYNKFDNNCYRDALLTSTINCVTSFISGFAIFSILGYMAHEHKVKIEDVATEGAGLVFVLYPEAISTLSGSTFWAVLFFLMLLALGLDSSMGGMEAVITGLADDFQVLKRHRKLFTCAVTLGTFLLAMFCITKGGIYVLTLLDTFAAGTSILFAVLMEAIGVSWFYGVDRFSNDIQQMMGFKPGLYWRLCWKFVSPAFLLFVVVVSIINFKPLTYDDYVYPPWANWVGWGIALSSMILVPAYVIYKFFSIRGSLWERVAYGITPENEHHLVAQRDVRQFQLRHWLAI
Method: as §1, §2

[3] = rat brain membranes excluding cerebellum, read-out: M1 [3H]pirenzepine Ki ± SEM
[4] = rat midbrain membranes, read-out: SERT [3H]citalopram Ki ± SEM

SMILES	Ki (DAT) [nM]	Binding selectivity NET/DAT (NET [1])	Binding selectivity M1/DAT (muscarinic M1 receptor)	Ki (muscarinic M1 receptor; [3]) [nM]	Binding selectivity SERT/DAT (SERT)	Ki (SERT; [4]) [nM]	other results
CN(C(c1ccc(F)cc1)c1ccc(F)cc1)[C@H]1C[C@H]2CC[C@@H](C1)N2C (as salt: oxalate) [Compound 2c]	–	–	–	–	–	–	melting point: 227 to 228 °C
Fc1ccc(C(N[C@H]2C[C@H]3CC[C@@H](C2)N3)c2ccc(F)cc2)cc1 (as salt: oxalate) [Compound 2g]	–	–	–	–	–	–	melting point: 138 to 140 °C
Fc1ccc(C(N[C@H]2C[C@H]3CC[C@@H](C2)N3CCCCc2ccccc2)c2ccc(F)cc2)cc1 (as salt: oxalate) [Compound 2j]	–	–	–	–	–	–	melting point: 194 to 196 °C
Fc1ccc(C(N[C@H]2C[C@H]3CC[C@@H](C2)N3CCc2c[nH]c3ccccc23)c2ccc(F)cc2)cc1 (as salt: oxalate) [Compound 2l]	–	–	–	–	–	–	melting point: 178 to 180 °C
COC(=O)[C@H]1[C@@H](OC(=O)c2ccccc2)C[C@@H]2CC[C@H]1N2C [Cocaine, cocaine, reference compound]	–	–	–	–	–	–	Locomotor activity (mice): ~400 counts per min
CN1[C@@H]2CC[C@H]1C[C@@H](NC(c1ccc(F)cc1)c1ccc(F)cc1)C2 [Compound 2a]	11.3 ± 1.61	160	0.7	7.81 ± 1.17	769	8680 ± 436	–
CN1[C@@H]2CC[C@H]1C[C@H](NC(c1ccc(F)cc1)c1ccc(F)cc1)C2 [Compound 2b]	661 ± 35	23	0.1	–	73	–	Reduction of binding affinity at the DAT compared to 2a (DAT): 58 fold; Ki (NET [2]): 15200 ± 1230 nM; Ki (muscarinic M1 receptor): 59.4 ± 7.3 nM; Ki (SERT): 48500 ± 6370 nM
CN1[C@@H]2CC[C@H]1C[C@@H](NC(c1ccc(Cl)cc1)c1ccc(Cl)cc1)C2 [Compound 2d]	–	–	–	50 ± 7.1	–	4180 ± 623	Reduction of binding affinity at the DAT compared to 2a (DAT): around 3 fold
CN1[C@@H]2CC[C@H]1C[C@@H](NC(c1ccccc1)c1ccc(Cl)cc1)C2 (stereo partly shown) [Compound 2e]	36.5 ± 0.66	87	0.3	9.3 ± 0.27	373	13600 ± 1040	Reduction of binding affinity at the DAT compared to 2a (DAT): around 3 fold
CN1[C@@H]2CC[C@H]1C[C@@H](NC(c1ccc(Cl)c(Cl)c1)c1ccc(Cl)c(Cl)c1)C2 [Compound 2f]	5.35 ± 0.25	48	3	17.8 ± 2.27	563	3010 ± 332	Higher binding affinity at the DAT compared to 2a (DAT; higher affinity than 2a): 2 fold; Reduction of NET over DAT selectivity compared to 2a (NET [1]; compared to 2a): 3 fold
Fc1ccc(C(N[C@H]2C[C@H]3CC[C@@H](C2)N3)c2ccc(F)cc2)cc1 [Compound 2g]	8.45 ± 0.23	118	18	154 ± 19.6	491	4150 ± 368	–
C=CCN1[C@@H]2CC[C@H]1C[C@@H](NC(c1ccc(F)cc1)c1ccc(F)cc1)C2 [Compound 2h]	26.8 ± 3.43	208	5	130 ± 10.5	146	3920 ± 581	–
CCCCN1[C@@H]2CC[C@H]1C[C@@H](NC(c1ccc(F)cc1)c1ccc(F)cc1)C2 [Compound 2i]	21.5 ± 2.31	136	21	454 ± 36.7	123	2640 ± 27.6	–
Fc1ccc(C(N[C@H]2C[C@H]3CC[C@@H](C2)N3CCCCc2ccccc2)c2ccc(F)cc2)cc1 [Compound 2j]	11.7 ± 0.39	139	37	438 ± 56.2	43	502 ± 68.1	–
NCCN1[C@@H]2CC[C@H]1C[C@@H](NC(c1ccc(F)cc1)c1ccc(F)cc1)C2 [Compound 2k]	12.5 ± 1.73	–	–	2110 ± 119	–	–	Lower binding affinity at the M1 receptor compared to 2a (muscarinic M1 receptor; lower affinity than 2a): 170 fold
Fc1ccc(C(N[C@H]2C[C@H]3CC[C@@H](C2)N3CCc2c[nH]c3ccccc23)c2ccc(F)cc2)cc1 [Compound 2l]	–	–	–	413 ± 6.55	–	347 ± 41.3	Reduction of binding affinity at the DAT compared to 2a (DAT): 6 fold
